From ChEMBL document CHEMBL1201862, “PubChem BioAssay data set” (2004)
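Where inhibition never reached the appropriate level, the endpoint shown equals the highest concentration tested. Otherwise, values were interpolated linearly from a five-concentration, 48-hour dose response in 96-well plates. The concentration for 50% growth inhibition is given as GI50.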 The source made the active and inactive calls. No stated cut-off is given here; in the data, active = GI50 up to about 1.1 µM and inactive = higher.

Assays:
Assay in all cases: inhibition of tumour cell growth, NCI panel, 48 h
[1] = tested on: A549
[2] = tested on: CCRF-CEM
[3] = tested on: HCC 2998
[4] = tested on: HCT-116
[5] = tested on: HCT-15
[6] = tested on: HL-60
[7] = tested on: K562
[8] = tested on: NCI/ADR-RES
[9] = tested on: OVCAR-3
[10] = tested on: RXF 393
[11] = tested on: SF-295
[12] = tested on: SK-MEL-5
[13] = tested on: SN12C
[14] = tested on: SNB-75
[15] = tested on: SW-620
[16] = tested on: UACC-257
[17] = tested on: UACC-62
[18] = tested on: ACHN
[19] = tested on: NCI-H226
[20] = tested on: T47D

Measured: GI50

O=C(O)c1ccccc1/N=C/c1ccc(N(CCCl)CCCl)cc1
inactive: [1] > 100 µM | [2] > 80.7 µM | [3] > 100 µM | [4] > 100 µM | [6] 29.4 µM | [7] > 100 µM | [8] > 100 µM | [9] > 100 µM | [10] > 48.3 µM | [11] > 100 µM | [12] > 100 µM | [13] > 85.5 µM | [14] > 100 µM | [15] > 100 µM | [16] > 78 µM | [17] 5.74 µM
> 100 µM: [5]

COc1cc2nc(-c3cccs3)nc(N3CCN(c4ccccc4)CC3)c2cc1OC
> 100 µM: [5]
inactive: [1] > 100 µM | [18] > 100 µM | [4] > 100 µM | [6] > 100 µM | [7] > 100 µM | [19] > 100 µM | [8] > 100 µM | [9] > 100 µM | [11] > 100 µM | [12] > 100 µM | [13] > 100 µM | [14] > 100 µM | [15] > 100 µM | [20] > 100 µM | [16] > 100 µM | [17] > 100 µM

C/C(=N\Nc1nc2ccccc2s1)c1cccnn1
active: [18] 0.718 µM | [2] 0.381 µM | [9] 0.406 µM
0.333 µM: [5]
inactive: [1] 2.23 µM | [3] 13.2 µM | [4] 2.05 µM | [7] 3.23 µM | [19] 2.75 µM | [8] 2.31 µM | [10] 17.1 µM | [11] 2.31 µM | [12] 1.31 µM | [13] 2.42 µM | [14] 5.5 µM | [15] 3.69 µM | [16] 2.48 µM | [17] 2.7 µM

CCc1ccccc1/N=N/C(=O)NNc1ccccc1CC
inactive: [1] 14.9 µM | [18] 19.8 µM | [2] 25.3 µM | [3] 15.7 µM | [4] 15.3 µM | [6] 23.2 µM | [7] 26.1 µM | [19] 17.5 µM | [9] 18.7 µM | [12] 15 µM | [13] 18.5 µM | [14] 19.4 µM | [15] 17.1 µM | [20] 6.78 µM | [16] 18.9 µM | [17] 10.3 µM
18.5 µM: [5]

COc1cc(OC)c2nc(C)c(CCCl)c(Cl)c2c1
> 100 µM: [5]
inactive: [1] > 100 µM | [18] > 100 µM | [2] > 100 µM | [3] > 100 µM | [4] > 100 µM | [6] > 100 µM | [7] > 100 µM | [19] > 100 µM | [8] > 100 µM | [9] > 100 µM | [10] > 100 µM | [11] > 100 µM | [12] > 10 µM | [13] > 100 µM | [14] > 100 µM | [15] > 100 µM | [16] > 100 µM | [17] > 100 µM

COc1ccc(O)c(C#N)c1C#N.COc1ccc(OC)c(C#N)c1C#N
> 100 µM: [5]
inactive: [1] > 100 µM | [2] > 100 µM | [3] > 100 µM | [4] > 100 µM | [6] > 100 µM | [7] > 100 µM | [19] > 100 µM | [8] > 100 µM | [9] > 100 µM | [10] > 100 µM | [11] > 100 µM | [12] > 100 µM | [13] > 100 µM | [14] 45.8 µM | [15] > 100 µM | [16] > 100 µM | [17] > 100 µM

CCN1C(=O)/C(=C/Nc2ccccc2)S/C1=N/Nc1nc(-c2ccc(O)c(O)c2)cs1
7.76 µM: [5]
inactive: [1] 33.7 µM | [18] 15.3 µM | [2] 4.53 µM | [4] 8.63 µM | [6] 2.33 µM | [7] 3.4 µM | [19] 51.5 µM | [8] 3.61 µM | [9] 5.69 µM | [10] 3.39 µM | [11] 4.46 µM | [12] 3.96 µM | [13] 4.24 µM | [14] 3.05 µM | [15] 8.47 µM | [16] 6.44 µM | [17] 6.4 µM

CC(C)Cc1ccc(C(C)/C=C2\CCC(CN3CCCC3)C2=O)cc1 (centres undefined)
4.06 µM: [5]
inactive: [1] 18.3 µM | [18] 11.7 µM | [2] 2.22 µM | [3] 7.08 µM | [4] 4.13 µM | [6] 1.89 µM | [7] 3.91 µM | [19] 18.1 µM | [9] 3.69 µM | [10] 18.8 µM | [11] 16.9 µM | [12] 14.8 µM | [13] 3.97 µM | [14] 14.1 µM | [15] 7.18 µM | [16] 16.7 µM | [17] 15.7 µM

CNC(=O)OCc1c(CO)nc(SC)n1C
> 100 µM: [5]
inactive: [1] > 100 µM | [2] > 100 µM | [3] > 100 µM | [4] > 100 µM | [6] > 100 µM | [7] > 100 µM | [19] > 100 µM | [8] > 100 µM | [9] > 100 µM | [10] > 100 µM | [11] > 100 µM | [12] > 100 µM | [13] > 100 µM | [14] > 100 µM | [15] > 100 µM | [16] > 100 µM | [17] > 100 µM

O=C(Oc1ccc(Cl)cc1[N+](=O)[O-])c1ccccc1
inactive: [1] > 100 µM | [18] > 100 µM | [2] 73.6 µM | [3] > 100 µM | [4] > 100 µM | [6] 65.6 µM | [7] > 100 µM | [19] 92.9 µM | [9] 69.5 µM | [10] 24.1 µM | [11] > 100 µM | [12] 16 µM | [13] > 100 µM | [14] 90.8 µM | [15] > 100 µM | [16] > 100 µM | [17] > 100 µM
> 100 µM: [5]

CC(C)=CC1C(C(=O)O)C1(C)C (centres undefined) [CHRYSANTHEMIC ACID]
inactive: [1] > 750 µM | [2] > 750 µM | [3] > 750 µM | [4] > 750 µM | [6] > 750 µM | [7] > 750 µM | [19] 75 µM | [8] > 750 µM | [9] > 750 µM | [10] > 750 µM | [11] > 750 µM | [12] > 750 µM | [13] > 724 µM | [14] > 750 µM | [15] > 750 µM | [16] > 750 µM | [17] > 750 µM
> 750 µM: [5]

COc1ccc2c(c1)CC1c3c(ccc(OC)c3O)CC2N1C (centres undefined)
inactive: [1] 57.3 µM | [18] 51.5 µM | [2] 23.3 µM | [3] 16.8 µM | [4] 19.6 µM | [6] 16.2 µM | [7] 20.4 µM | [19] 86.1 µM | [9] 29.2 µM | [10] 22.6 µM | [11] 22.8 µM | [12] 18.1 µM | [13] 43 µM | [14] 38.3 µM | [15] 21.5 µM | [16] 23.1 µM | [17] 47.4 µM
34.4 µM: [5]
